Patent US20250295609A1, “COMPOUND HAVING ANTI-ANDROGEN RECEPTOR ACTIVITY, AND USE THEREOF” (NANJING MINOVA PHARMACEUTICAL CO., LTD., priority 2022, published 2025)
pIC50: −log10 of the molar value. Structures can show the parent of a compound that is named as a salt. Where two headings read alike, the source gives them in different places.

Tests used:
[1] = tested on: human prostate cancer cells LNCaP; test: Cell viability inhibition assay (CTG) on LNCaP cells in presence of DHT; type: cell-based; conditions: read-out: Inhibitory activity against human prostate cancer cell LNCaP IC50
From the text: Human prostate cancer cells LNCaP and human prostate cancer cells 22Rvl are present in patients with prostate cancer. An androgen, DHT, is able to promote the growth of human prostate cancer cells LNCaP. Using the cell model described above was intended to study the inhibitory effects of the compounds of the present disclosure on the growth of human prostate cancer cells (human prostate cancer cells LNCaP and human prostate cancer cells 22Rvl) in the presence or absence of DHT.
The medium in the culture dish was discarded, and 5 mL of trypsin was added for digestion for about 3 mins. The digestion was stopped by adding 10 mL of a fresh medium. The cells were fully pipetted and transferred to a 15 mL centrifuge tube, and the cells were collected by centrifugation at 1000 rpm for 5 mins. The cells collected by centrifugation were resuspended in 11 mL of a fresh medium. 1 mL of the cells was taken and counted, and the cell viability was detected. The cell density was adjusted to 1×10^4 cells/mL by adding an appropriate amount of the medium. The cells were seeded in a 96-well plate at 200 µL/well, and the plate was incubated overnight in a cell incubator.
After the cells were attached to the well, for the human prostate cancer cells LNCaP group, test compounds (0.1 μM, 0.3 μM, 1 μM, 3 μM, 10 μM, and 30 μM) and DHT (1 nM, inducing the expression of AR) were added to the 96-well plate, and the plate was incubated for another 5 days; for the human prostate cancer cells 22Rvl group, test compounds (0.1 μM, 0.3 μM, 1 μM, 3 μM, 10 μM, and 30 μM) were added to the 96-well plate, and the plate was incubated for another 5 days. […] The 96-well plate was equilibrated at room temperature for 30 mins. The cell viability was detected by using a CTG method. Before detection, CellTiter-Glo® Buffer and a substrate thereof (collectively called CTG reagent) were thawed and equilibrated to room temperature. Then, […] of Buffer was gently mixed with the substrate to form a homogeneous solution. The homogeneous solution was added to the 96-well plate at 100 µL/well, and the 96-well plate was incubated on a shaker for 15 mins. The fluorescence value in each well was then detected. The detection method for the fluorescence value in each well was as follows: after adding the CTG reagent, luminescence detection (integration time: 500 ms) was performed by using a correspondingly equipped multi-mode microplate reader (M200Pro, TECAN, Switzerland) according to the supplier's manual to quantify the effect of the inhibitor on the cell viability. For data analysis, an assay background value was subtracted from all data points, which was determined in wells containing the medium but no cells. Data were processed using the XLfit software (XLfit 5.2., IDBS, UK), and IC50 values of the test compounds were calculated.

[2] = target: T1, AR protein expression in human prostate cancer cells LNCaP (Homo sapiens, UniProt P10275, T878A); test: Reduction of AR protein expression in LNCaP cells (Western blot, with DHT); type: cell-based; conditions: 1 nM DHT; for anti-AR activity (in words): Western blot; for AR reduction percentage: 2.5 μmol/L compound; for AR reduction percentage / Relative potency (anti-AR activity): 48 h; for Relative potency (anti-AR activity): concentration basis not given
T1 sequence (P10275 1-920 T878A): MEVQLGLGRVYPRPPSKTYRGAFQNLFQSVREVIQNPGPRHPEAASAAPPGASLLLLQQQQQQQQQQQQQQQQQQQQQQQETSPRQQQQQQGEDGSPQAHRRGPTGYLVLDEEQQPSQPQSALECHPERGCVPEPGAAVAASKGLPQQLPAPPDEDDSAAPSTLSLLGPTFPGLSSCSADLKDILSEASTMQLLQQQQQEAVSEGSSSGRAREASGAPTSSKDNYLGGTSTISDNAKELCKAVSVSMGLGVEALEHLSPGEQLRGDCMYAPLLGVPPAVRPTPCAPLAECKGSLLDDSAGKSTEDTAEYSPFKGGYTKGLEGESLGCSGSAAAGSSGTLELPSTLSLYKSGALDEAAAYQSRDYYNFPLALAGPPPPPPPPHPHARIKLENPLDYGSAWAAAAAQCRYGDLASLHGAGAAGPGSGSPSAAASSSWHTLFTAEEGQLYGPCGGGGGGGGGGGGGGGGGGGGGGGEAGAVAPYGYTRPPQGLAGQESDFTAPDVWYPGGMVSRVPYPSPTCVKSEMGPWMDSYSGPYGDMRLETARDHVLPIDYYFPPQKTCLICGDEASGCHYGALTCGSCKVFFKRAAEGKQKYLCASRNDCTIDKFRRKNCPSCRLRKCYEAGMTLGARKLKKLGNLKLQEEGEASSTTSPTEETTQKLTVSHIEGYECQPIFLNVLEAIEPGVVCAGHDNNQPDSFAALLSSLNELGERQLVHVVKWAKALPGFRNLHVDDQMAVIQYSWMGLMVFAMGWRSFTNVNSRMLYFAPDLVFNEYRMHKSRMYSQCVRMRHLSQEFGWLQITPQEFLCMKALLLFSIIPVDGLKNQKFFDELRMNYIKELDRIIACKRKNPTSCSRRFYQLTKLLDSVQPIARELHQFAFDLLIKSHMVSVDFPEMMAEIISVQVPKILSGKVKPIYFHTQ
Experimental: The term “anti-AR activity” refers to the ability of the compound of the present disclosure to reduce AR expression in human prostate cancer cells LNCaP, and the ability of the compound of the present disclosure to reduce AR expression is expressed in AR reduction percentage (%) herein. […] The AR reduction percentage (%) is calculated as follows: AR reduction percentage (%)=(AR in DHT group/GAPDH value−AR in test compound group/GAPDH value)/AR in DHT group/GAPDH value×100%.
AR is a key factor for regulating the response of prostate cancer cells to androgens. AR is also a key factor for the response of hair follicles or tissues around the hair follicles to androgens, and the reduction of the AR content not only can down-regulate the growth of the prostate cancer cells, but also can inhibit androgenetic alopecia. This test example is to test the effects of the compounds of the present disclosure on the reduction of AR protein expression in human prostate cancer cells LNCaP in the presence of DHT. The compounds of the present disclosure were analyzed for anti-AR activity in human prostate cancer cells LNCaP by measuring the reduction of AR protein using the Western blot method.
Human prostate cancer cells LNCaP were seeded in a 6-well plate at 4×10^5 cells/mL and at a volume of 2 mL per well. The plate was incubated overnight in a cell incubator. DMSO and dihydrotestosterone (DHT, 1 nM) were used as control groups. Assays were performed in the presence of dihydrotestosterone (DHT, 1 nM). After incubating with the test compounds for a specified time, the cells were collected and dissolved according to the Western blot technique known in the biochemical art. A DMSO group, a DHT group (1 nM) and test compound groups (containing 1 nM DHT) were set during the assay. DMSO and DHT (1 nM DHT) were added to 6-well plates corresponding to the DMSO group and the DHT group, respectively. […] The protein concentration was quantified using the BCA kit, and then the samples were stored for later use.
The content of the AR protein in each group was determined by using Western Blot, and the loading amount of the sample in each group was […]. Western blot analysis has been disclosed in the prior art. Specifically, the cells were collected in 2× sodium dodecyl sulfate/polyacrylamide gel electrophoresis loading buffer or in radioimmunoprecipitation assay (RIPA) buffer strengthened with 10 μg/mL benzamidine, 10 μg/mL trypsin inhibitor, and 1 mM phenylmethylsulfonyl fluoride. A sample of total protein (about 40 μg) from each cell lysate was separated by electrophoresis on an SDS/PAGE gel. After separation by electrophoresis, the proteins were transferred from the gel to a nitrocellulose membrane following the standard procedures. The membrane was then incubated with 10% non-fat milk in phosphate-buffered saline supplemented with 0.1% Tween 20 (PBST) for 1 h, followed by incubation with a primary human AR-specific antibody (purchased from BD-Harlingen) at 4° C. overnight. After incubation, the membrane was washed 3 times with PBST buffer, each for 10 mins. An alkaline phosphatase-conjugated secondary antibody was then added, and the membrane was incubated at room temperature for 1 h. After the secondary incubation, the membrane was washed again with PBST, and the AR protein signal in the membrane was visualized by adding an alkaline phosphatase medium, bromochloroindolyl phosphate, and nitrotetrazole to the membrane. To ensure that an equal amount of protein from each sample was analyzed, a portion of the membrane was kept with a specific antibody for the regulatory protein GAPDH (Santa Cruz Biotechnology), and the GAPDH signal was visualized with the secondary antibody described above. The protein signal intensity (as indicated by color bands on the membrane) was measured using a densitometer and analyzed by the NIH Image J software (NIH1.33).

[3] = Homo sapiens, 120 h, 1 nM DHT, 5 days, CTG

pIC50 [1, 3]	SMILES	pIC50 ([1]; Homo sapiens, 120 h)	further results
6.21	COc1ccc(/C=C/C(=O)C2(C(=O)/C=C/c3ccc(OC)c(OC)c3)CCC(NC3CC(F)(F)C3)CC2)cc1OC [Compound 23 hydrochloride]	–	–
–	[2H]C([2H])([2H])Oc1ccc(/C=C/C(=O)C2(C(=O)/C=C/c3ccc(OC([2H])([2H])[2H])c(OC([2H])([2H])[2H])c3)C([2H])([2H])C2([2H])[2H])cc1OC([2H])([2H])[2H] [Compound 6]	5.59	–
–	COc1ccc(/C=C/C(=O)C2(C(=O)/C=C/c3ccc(OC)c(OC)c3)CCC3(CC3)CC2)cc1OC [Compound 26]	6.21	–
6.01	COc1ccc(/C=C/C(=O)C2(C(=O)/C=C/c3ccc(OC)c(OC)c3)CCC3(CC2)OCCO3)cc1OC [Compound 11]	–	–
6.46	COc1ccc(/C=C/C(=O)C2(C(=O)/C=C/c3ccc(OC)c(OC)c3)CCC(N3CCCCC3)CC2)cc1OC [Compound 19 hydrochloride]	–	anti-AR activity (in words) [2]: significant anti-AR activities; AR reduction percentage [2]: 81.4%; Relative potency (anti-AR activity) [2]: ++++++ (75 < * ≤ 100)
–	COc1ccc(/C=C/C(=O)C2(C(=O)/C=C/c3ccc(OC)c(OC)c3)COC(=O)OC2)cc1OC [Compound 9]	5.48	–
6.02	COc1ccc(/C=C/C(=O)C2(C(=O)/C=C/c3ccc(OC)c(OC)c3)CCC(O)CC2)cc1OC [Compound 13]	–	–
–	COc1ccc(/C=C/C(=O)C2(C(=O)/C=C/c3ccc(OC)c(OC)c3)CCC(N3CCOCC3)CC2)cc1OC [Compound 12 hydrochloride]	–	anti-AR activity (in words) [2]: significant anti-AR activities; AR reduction percentage [2]: 86.2%; Relative potency (anti-AR activity) [2]: ++++++ (75 < * ≤ 100); pIC50 ([1]; 1 nM DHT, 5 days, CTG, listed as 12 hydrochloride): 6.35
5.50	COc1ccc(/C=C/C(=O)C2(C(=O)/C=C/c3ccc(OC)c(OC)c3)CC=C(F)CC2)cc1OC [Compound 22]	–	–
–	[2H]C([2H])([2H])Oc1ccc(/C=C/C(=O)C2(C(=O)/C=C/c3ccc(OC([2H])([2H])[2H])c(OC([2H])([2H])[2H])c3)CCC2)cc1OC([2H])([2H])[2H] [Compound 2]	5.74	–
–	COc1ccc(/C=C/C(=O)C2(C(=O)/C=C/c3ccc(OC)c(OC)c3)CCC(N3CCOCC3)CC2)cc1OC [Compound 12]	–	pIC50 ([1]; 1 nM DHT, 5 days, CTG): 5.89
–	[2H]C([2H])([2H])Oc1ccc(/C=C/C(=O)C2(C(=O)/C=C/c3ccc(OC([2H])([2H])[2H])c(OC([2H])([2H])[2H])c3)CC2)cc1OC([2H])([2H])[2H] [Compound 1]	5.77	–
–	COc1ccc(/C=C/C(=O)C2(C(=O)/C=C/c3ccc(OC)c(OC)c3)CCN(C(=O)OC(C)(C)C)CC2)cc1OC [Compound 25]	5.86	–
–	COc1ccc(/C=C/C(=O)C2(C(=O)/C=C/c3ccc(OC)c(OC)c3)CC3(CC3)C2)cc1OC [Compound 5]	5.26	–
6.21	COc1ccc(/C=C/C(=O)C2(C(=O)/C=C/c3ccc(OC)c(OC)c3)CCC(N3CCC(F)(F)CC3)CC2)cc1OC [Compound 18 hydrochloride]	–	–
–	COc1ccc(/C=C/C(=O)C2(C(=O)/C=C/c3ccc(OC)c(OC)c3)CCN(S(C)(=O)=O)CC2)cc1OC [Compound 24]	6.21	–
–	[2H]C([2H])([2H])Oc1ccc(/C=C/C(=O)C2(C(=O)/C=C/c3ccc(OC([2H])([2H])[2H])c(OC([2H])([2H])[2H])c3)CCCC2)cc1OC([2H])([2H])[2H] [Compound 3]	5.76	–
–	CCN(CC)C1CCC(C(=O)/C=C/c2ccc(OC)c(OC)c2)(C(=O)/C=C/c2ccc(OC)c(OC)c2)CC1 [Compound 16 hydrochloride]	6.43	–
